The target in data set [1] is hCYP19A1. Further details: method as in PMID 26481362. The conditions noted are these: cocrystallized ligand of hCYP19A1; cited from earlier work.
The target of data set [2] is T1, aromatase (CYP19A) (Homo sapiens, UniProt P11511).
T1 construct: purchased BioVision
T1 sequence (P11511 1-503): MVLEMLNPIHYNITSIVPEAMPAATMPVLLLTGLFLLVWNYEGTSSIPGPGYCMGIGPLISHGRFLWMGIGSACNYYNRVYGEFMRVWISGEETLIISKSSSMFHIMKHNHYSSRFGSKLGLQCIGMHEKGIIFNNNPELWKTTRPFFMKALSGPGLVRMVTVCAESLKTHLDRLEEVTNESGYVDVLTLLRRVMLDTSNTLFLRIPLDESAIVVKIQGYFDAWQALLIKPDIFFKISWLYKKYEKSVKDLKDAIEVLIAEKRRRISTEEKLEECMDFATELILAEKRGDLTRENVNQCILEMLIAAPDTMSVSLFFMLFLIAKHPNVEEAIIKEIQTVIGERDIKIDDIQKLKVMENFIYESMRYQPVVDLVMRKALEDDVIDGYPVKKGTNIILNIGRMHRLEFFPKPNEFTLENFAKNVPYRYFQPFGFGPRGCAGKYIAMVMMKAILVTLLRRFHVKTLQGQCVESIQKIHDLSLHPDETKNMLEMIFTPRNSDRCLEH
The experiment in a line: Aromatase inhibition, fluorimetric assay kit (Aromatase-CYP19A Inhibitor Screening kit, BioVision). It is filed as biochemical. The following applies: read-out: Aromatase % inhibition.
Experimental: The aromatase inhibitory activity of the novel compounds was determined using a commercial fluorimetric kit (Aromatase CYP19A Inhibitor Screening kit, BioVision, Milpitas, CA, USA). The assay utilises a fluorogenic aromatase substrate, that is converted into a highly fluorescent metabolite detected in the visible range (Ex/Em = 488/527 nm), ensuring a high signal-to-background ratio with little interference by autofluorescence.

For data set [3], the target named is T2, Recombinant human iNOS (Homo sapiens, UniProt P35228).
T2 construct: purchased Enzo Life Sciences, Inc
Briefly: iNOS inhibition, L-citrulline assay with fluorimetric (HPLC) detection. It is filed as biochemical. The following applies: for inhibition at 1 µM: read-out: iNOS % inhibition. The protocol:
The injection volume was 5 μL.
Recombinant human iNOS was purchased from Enzo Life Sciences, Inc. (New York, USA).

Data set [4] can be described thus: Chemical stability in aqueous media at 37 °C (HPLC). The following applies: for Chemical stability in acidic medium: HCl solution pH = 2.0, 37 °C; for Chemical stability in acidic medium / Chemical stability in neutral medium: monitored for 24 h; for Chemical stability in neutral medium: Phosphate buffer pH = 7.4, 37 °C; for half-life at 0.05 mg/mL: NaOH solution pH = 9.0, 37 °C, read-out: half-life of hydrolysis in basic medium. The format is physicochemical. Here is the method: Compounds 2 and 5 contain an ester linkage, therefore their chemical stability was evaluated. Phosphate buffer (pH = 7.4), HCl solution (pH = 2.0), NaOH solution (pH = 9.0) were adopted as media. […] Solutions were kept at 37 °C and monitored for 24 h.
A 0.01 M hydrochloric acid buffer (pH 2), as a non-enzymatic simulated gastric fluid (SGF), a 0.01 M phosphate buffer (pH 7.4) as non-enzymatic simulated intestinal fluid (SIF), and a 0.1 mM sodium hydroxide solution (pH 10) were used in this study. The reactions were initiated by adding 0.1 ml of compound stock solution (1 mg/mL in DMSO) to 1.9 ml aqueous buffer solution, in screw-capped vials at 37 ± 0.5 °C. Samples (5 µL) were withdrawn at appropriate intervals, i.e. after 5 min, 1 h, 2 h, 3 h, 4 h, 6 h, 8 h, and then after 24 h incubation time and analysed by HPLC.

Data set [5] has as its system MCF-7 breast cancer cell line. The experiment in a line: Cell metabolic activity (MTT assay). The format is cell-based. The following applies: Homo sapiens, read-out: IC50 cell metabolic activity (MTT). The protocol: (§1) Human breast cancer MCF-7 (HTB-22™) cells were purchased from ATCC® and maintained in Dulbecco’s Modified Eagle Medium (DMEM) high glucose supplemented with 10% of foetal bovine serum (FBS) and 1% of penicillin/streptomycin (all from Gibco-Thermofisher Scientific, MD, USA) at 37 °C and 5% CO2.
Cell metabolic activity of MCF-7 human breast cancer cells was assessed by MTT (3–(4,5-dimethylthiazol-2-yl)-2,5-diphenyltetrazolium bromide) test (Sigma Aldrich, Milan, Italy). Cells were seeded (0.1 × 10^4/well) in a 96-well tissue culture-treated plate (Falcon®, Corning Incorporated, NY, USA) and let them adhere for 24 h. Next, the cell monolayer was incubated in the presence of loading concentrations of compounds 2, 5 and 6 (0–400 µM) diluted in DMSO (final concentration 0.2%) for 24, 48 and 72 h. After the exposure time, cells were incubated with 100 μL/well of MTT (5 mg/mL) 1:10 with fresh growth medium (final concentration 0.5 mg/mL) for 4 h at 37 °C and 5% CO2. Finally, the MTT solution was removed and replaced with 100 µL/well of DMSO. Cells were incubated for an additional 20 min at 37 °C and 5% CO2 and afterward gently swirled for 10 min at room temperature. The optical density was measured at 540 nm by means of a spectrophotometer (Multiskan GO, Thermo Scientific, Monza, Italy). Results were expressed as the percentage of cells in the presence of vehicle (DMSO) set as 100% and each experiment was performed in triplicate (n = 3). Concentration-response curves and IC50 were fitted and calculated with the GraphPad Prism 5.0 (GraphPad Software, San Diego, CA, USA)[27].
On the technique in general: Tetrazolium dyes change colour on reduction, which living cells bring about.

For data set [6], the system named is MCF-7 cell line. The experiment in a line: Cytotoxicity test (lactate dehydrogenase release). The format is cell-based, human. The conditions noted are these: MCF-7, 24 h, DMSO control set as 1. Here is the method:
as §1
After 24 h, cell supernatants were collected from the MTT plate, centrifuged at 450 × g for 4 min and stored on ice. To quantify the cytotoxicity of loading concentrations of compounds 2, 5 and 6 (0–400 µM), the CytoTox 96® Non-Radioactive Cytotoxicity Assay (Promega Corporation, WI, USA) was performed. The CytoTox 96® Assay quantitatively measures lactate dehydrogenase (LDH), a stable cytosolic enzyme released upon cell lysis. The absorbance signal resulting from the conversion of a tetrazolium salt (iodonitrotetrazolium violet; INT) into a red formazan product was measured at 490 and 690 nm (background) with a spectrophotometer (Multiskan GO, Thermo Scientific, Monza, Italy). The results were normalised on MTT absorbances and expressed as fold increases on the LDH released by cultures in the presence of vehicle (DMSO) set as 1.

In data set [7] the test system is C. albicans ATCC 90028. Briefly: Antifungal broth microdilution (EUCAST), standard strain. It is filed as cell-based. The conditions noted are these: Candida albicans. The protocol:
(§2) The antifungal activity of the most representative compounds was evaluated versus one ATCC 90028 strain and 15 clinical isolates belonging to the most clinically relevant Candida spp. (C. albicans, C. tropicalis, and C. glabrata). All strains were stored at −80 °C in Sabouraud Broth (Oxoid LTD, Basingstoke, Hampshire, England) with 20% of glycerine until their use. The strains were grown on Sabouraud CAF agar (Thermo Fisher Scientific Waltham, MA, USA), and incubated for 24–48 h at 37 °C. […] The in vitro antifungal activity was determined by broth microdilution method with RPMI 1640 (Sigma-Aldrich. ST Louis, MO, USA) as recommended by EUCAST, and the E. Def 7.3, method document (http://www.eucast.org). […] Each plate included the following controls: (i) inoculum suspension (growth control), (ii) drug-free medium, (iii) medium with drug, and (iv) distilled water (used for the inoculum preparation). Fluconazole was used as a reference drug according to the EUCAST guidelines. The plates were incubated for 24 h at 37 °C, and then read with a plate reader at 530 nm. […] Three independent experiments were performed in triplicate.

In data set [8] the test system is C. albicans clinical isolates. Briefly: Antifungal broth microdilution (EUCAST), C. albicans clinical isolates. The following applies: Candida albicans. The format is cell-based. The protocol:
as §2
On the technique in general: Broth dilution looks for growth in wells or tubes with falling amounts of substance.

For data set [9], the system named is C. tropicalis clinical isolates. The experiment in a line: Antifungal broth microdilution (EUCAST), C. tropicalis clinical isolates. It is filed as cell-based, Candida tropicalis. The protocol: as §2
The subject of data set [10] is C. glabrata clinical isolates. Briefly: Antifungal broth microdilution (EUCAST), C. glabrata clinical isolates. The format is cell-based, Candida glabrata. Here is the method:
as §2

For data set [11], the target named is aromatase. The following applies: cited from earlier work.
In data set [12] the target is iNOS. Further details: method as in PMID 26481362. The conditions noted are these: cocrystallized ligand of iNOS; cited from earlier work.
The mark [13] stands for this setting: 10 µM (lowest concentration tested).

In brackets after ≈: the same amount, converted by molar mass. Several values for one entry are separate records, joined by “and”; a condition that tells them apart may be missing. Identical values can stand only once. Like-named read-outs stand apart in the source and are kept apart here.

In general, Ki refers to the dissociation constant of the complex between target and ligand, obtained from inhibition or displacement. Usually inhibition stands for the share of the control response that was lost under treatment. In general, half-life refers to how long it takes for the measured level to halve. By IC50 is commonly meant the concentration at which inhibition is half-maximal. What is called MIC is the least concentration at which growth counts as inhibited. The term melting point denotes the temperature, or range, at which the solid turns liquid.

For the molecule `C[C@]12CCC(=O)C=C1CC[C@@H]1[C@@H]2CC[C@]2(C)C(=O)CC[C@@H]12` [4-androstene-3,17-dione], in data set [1], the Ki is 0.02 µM.

Molecule `O=C(OC(Cc1ccccc1)Cn1ccnc1)c1ccccc1` (centres unmarked) [Compound 2, 1-benzyl-2-(1H-imidazol-1-yl)ethyl benzoate] yielded a melting point of 68 to 69 °C. In addition, in data set [2], the inhibition at 1 µM worked out at 77 ± 1.8%. In addition, in data set [3], the inhibition at 1 µM amounted to 100 ± 2.6%. In [4], the “Chemical stability in acidic medium” value was “stable” and the “Chemical stability in neutral medium” value is “stable”. In addition, in data set [4] (aqueous NaOH solution), the half-life at 0.05 mg/mL came out at 48 min. For the same molecule, the IC50 in [5] (MCF7, MCF-7, 24 h exposure) is above 200 µM. Moreover, the “LDH released, fold increase vs control” value in data set [6] (setting [13]) worked out at 1.44 folds. The MIC in data set [7] (ATCC90028, C. albicans ATCC 90028, 24 h, ≥50% growth inhibition, read-out: MIC) was determined as 16 µg/mL (≈ 52.2 µM). The same molecule had an MIC in data set [8] (C. albicans 78/5) of 16 µg/mL (≈ 52.2 µM). In [8] (C. albicans 231/5), this molecule had an MIC of 16 µg/mL (≈ 52.2 µM). Also, the MIC in [8] (C. albicans 308/4) stood at 64 µg/mL (≈ 209 µM). The minimal inhibitory concentration (MIC) in data set [8] (C. albicans 510/5) came out at 16 µg/mL (≈ 52.2 µM). The MIC in data set [8] (C. albicans 688/5) stood at 32 µg/mL (≈ 104 µM). The molecule further displayed an MIC in [8] (C. albicans 712/5) of 32 µg/mL (≈ 104 µM). In data set [8] (C. albicans 887/5), this molecule registered an MIC of 16 µg/mL (≈ 52.2 µM). Moreover, the MIC in [8] (C. albicans 943/5) was 16 µg/mL (≈ 52.2 µM). For the same molecule, in data set [8] (C. albicans 1009/40), the MIC stood at 16 µg/mL (≈ 52.2 µM). In data set [8] (C. albicans SF1), this molecule displayed an MIC of 16 µg/mL (≈ 52.2 µM). In data set [9] (C. tropicalis 295/5), this molecule registered an MIC of 64 µg/mL (≈ 209 µM). Also, the MIC in [9] (Candida tropicalis, C. tropicalis 74/5, read-out: MIC) was determined as 64 µg/mL (≈ 209 µM). The same molecule showed an MIC in [10] (C. glabrata 311/5) above 64 µg/mL. Further, the MIC in data set [10] (C. glabrata 495/5) is recorded as above 64 µg/mL. The MIC in data set [10] (Nakaseomyces glabratus, C. glabrata 365/5, read-out: MIC) is above 64 µg/mL.

For `COc1ccc(S(=O)(=O)N2CCCC(Cn3ccnc3)C2)cc1Br` (centres unmarked) [Compound 3o], the IC50 in data set [11] (Figure 1) is 0.006 µM.

`O=C(OC(Cc1ccccc1)Cn1ccnc1)c1cc([N+](=O)[O-])cc([N+](=O)[O-])c1` (centres unmarked) [Compound 5, 1-benzyl-2-(1H-imidazol-1-yl)ethyl 3,5-dinitrobenzoate] registered a melting point of 144 to 145 °C. In data set [2], the inhibition at 1 µM amounted to 82 ± 3.8%. Moreover, the iNOS % inhibition result in data set [3] (compounds at 1 µM, normalised to 1400 W (positive control, 100% inhibition at 1 μM), triplicate, mean ± SD) is recorded as “complete enzyme inhibition”. Also, the inhibition at 1 µM in data set [3] amounted to 100 ± 1.7%. Moreover, in data set [4], the “Chemical stability in acidic medium” value was “stable” and the “Chemical stability in neutral medium” value is recorded as “stable”. Further, the half-life at 0.05 mg/mL in data set [4] (buffer) turned out to be 39 min. In addition, in data set [5] (MCF7, 24 h), the IC50 came out at 120 µM. Besides, the IC50 in [5] (MCF7, 48 h) came out at 82.5 µM. In addition, in [5] (MCF7, 72 h), the IC50 amounted to 68.8 µM. Besides, the “LDH released, fold increase vs control” value in data set [6] (setting [13]) turned out to be 1.91 folds. Further, the “LDH released, fold increase vs control” value in data set [6] (concentrations after the IC50 (120 µM)) is 6.25 folds and 7.50 folds. The MIC in [7] (ATCC90028, 24 h) is above 64 µg/mL.

Take `O=C(NCc1ccccc1)OC(Cn1ccnc1)c1ccccc1` (centres unmarked) [Compound 13a]: in data set [11] (at 1 µM), the aromatase % inhibition is listed as 81%.

As to `CCSC(=N)N` [ethylisothiourea], the Ki in [12] was 0.005 µM.

The record behind these values is publication PMC8300937, “New azolyl-derivatives as multitargeting agents against breast cancer and fungal infections: synthesis, biological evaluation and docking study” (Journal of Enzyme Inhibition and Medicinal Chemistry, 2021).
